Patent EP2072621A1, “Solvent tolerant microorganisms” (DSM IP Assets B.V., priority 2007, dated 2009)
Where two headings read alike, the source gives them in different places.

Assays:
L. plantarum ATCC 8014 = settings: 30 degrees C; for Relative growth rate: reference at 0 g/L = 1.00
Procedure: (§1) MRS medium oxoid (CM0359, Merck KgaA, Germany) was prepared according to manufacturer's instructions and filled out in 50 ml Schott flasks and sterilized at 121 degrees C during 15 minutes. 1 vial of thawed frozen culture was inoculated to 50 ml of this medium and the cultures were subsequently incubated overnight at 30 degrees C standing still or during 2 nights if no clear growth (whitening) had occurred yet. 20 microliter of this culture was inoculated to 180 microliter of microtiter plate (MTP) medium. The pH of this medium was approximately 6.0.
(§2) After inoculation, every 20 minutes the optical density at 620 nm was measured in the wells of the microtiter plate using a Multiscan Ascent photometer (Thermo Fisher Scientific, Inc.), while the temperature was controlled at 30 degrees C. Total time of measurement was maximally 24 hours. Before measurements were taken, the microtiter plates were shaken for 30 seconds to homogenize any settled biomass.
(§3) The growth rate was calculated using the exponential phase of the growth curve, based on the optical density measurement. The relative growth rate was calculated using the reference at 0 g/L as 1.00. […] Table 3 Relative growth rate
(§4) IC50(%) values were determined for the Lactobacilli at 30 degrees C by using a polynomial second order fit through the relative growth rate data and are presented in Table 4. […]

L. casei ADRIA 85 L121 = settings: 30 degrees C; for Relative growth rate: reference at 0 g/L = 1.00
Procedure: as §1, §2, §3, §4

Lactobacilli = settings: butanol concentration of 2.5 w/v%
Procedure: as §1, §2, §3, §4

[1] = test system: L. casei from commercial rennet; settings: 30 degrees C; for Relative growth rate: reference at 0 g/L = 1.00
Procedure: as §1, §2, §3, §4

[2] = test system: L. fructivorans ATCC 8288; settings: 30 degrees C; for Relative growth rate: reference at 0 g/L = 1.00
Procedure: as §1, §2, §3, §4

[3] = polynomial second order fit through the relative growth rate data

butanol
IC50% (L. plantarum ATCC 8014; [3]): 2.2 w/v % | Relative growth rate (L. plantarum ATCC 8014; Butanol concentration 0.5 w/v%): 0.97 | Relative growth rate (L. plantarum ATCC 8014; Butanol concentration 1 w/v%): 0.90 | Relative growth rate (L. plantarum ATCC 8014; Butanol concentration 1.5 w/v%): 0.77 | Relative growth rate (L. plantarum ATCC 8014; Butanol concentration 2.5 w/v%): 0.37 | IC50% (L. casei ADRIA 85 L121; [3]): 2.0 w/v % | Relative growth rate (L. casei ADRIA 85 L121; Butanol concentration 0.5 w/v%): 0.96 | Relative growth rate (L. casei ADRIA 85 L121; Butanol concentration 1 w/v%): 0.89 | Relative growth rate (L. casei ADRIA 85 L121; Butanol concentration 1.5 w/v%): 0.73 | Relative growth rate (L. casei ADRIA 85 L121; Butanol concentration 2.5 w/v%): 0.21 | growth in presence of butanol (Lactobacilli): can still grow | IC50% [1, 3]: 1.9 w/v % | Relative growth rate ([1]; Butanol concentration 0.5 w/v%): 0.88 | Relative growth rate ([1]; Butanol concentration 1 w/v%): 0.79 | Relative growth rate ([1]; Butanol concentration 1.5 w/v%): 0.68 | Relative growth rate ([1]; Butanol concentration 2.5 w/v%): 0.24 | IC50% [2, 3]: 2.1 w/v % | Relative growth rate ([2]; Butanol concentration 0.5 w/v%): 0.94 | Relative growth rate ([2]; Butanol concentration 1 w/v%): 0.89 | Relative growth rate ([2]; Butanol concentration 1.5 w/v%): 0.78 | Relative growth rate ([2]; Butanol concentration 2.5 w/v%): 0.28
